The record followed here is patent US20200341000A1, “METHOD OF SCREENING COMPOUNDS FOR TREATING CNS DISORDERS” (SAGE THERAPEUTICS, INC., priority 2017, published 2020).

Entries after “also recorded” stand apart in the source; their conditions may differ. Read-outs that look alike come from different tables or passages of the source.

The subject of assay [1] is tonic current in dentate gyms granule cells (DGGCs). In words: Sustained (metabotropic) enhancement of tonic current in DGGCs after 15 min exposure and washout. The assay is classed as cell-based, mice. Conditions: for tonic current after exposure and washout: 1 μM, vehicle 43.9±5.7 pA; for change of tonic current after exposure to different concentrations: maximal effects at 1 μM; for tonic current versus vehicle with PKC inhibitor GFX: GFX 50 μM 15 min, then co-exposure with compound 15 min, washout. The method, then: Brain slices were prepared from 3- to 5-week-old male C57 mice. Mice were anesthetized with isoflurane, decapitated, and brains were rapidly removed and submerged in ice-cold cutting solution containing (mM): 126 NaCl, 2.5 KCl, 0.5 CaCl2, 2 MgCl2, 26 NaHCO3, 1.25 NaH2PO4, 10 glucose, 1.5 sodium pyruvate, and 3 kynurenic acid. Coronal 310 μm thick slices were cut with the vibratome VT1000S (Leica Microsystems, St Louis, Mo., USA). The slices were then transferred into incubation chamber filled with prewarmed (31-32° C.) oxygenated artificial cerebro-spinal fluid (ACSF) of the following composition (in mM): 126 NaCl, 2.5 KCl, 2 CaCl2, 2 MgCl2, 26 NaHCO3, 1.25 NaH2PO4, 10 glucose, 1.5 sodium pyruvate, 1 glutamine, 3 kynurenic acid and 0.005 GABA bubbled with 95% O2-5% CO2. Slices were allowed to recover at 32° C. for at least 1 hr before recording. Exogenous GABA was added in an attempt to standardize ambient GABA in the slice and provide an agonist source for newly inserted extrasynaptic GABAARs.
After recovery, a single slice was transferred to a submerged, dual perfusion recording chamber (Warner Instruments, Hamden, Conn., USA) on the stage of an upright microscope (Nikon FN-1) with a 40× water immersion objective equipped with DIC/IR optics. Slices were maintained at 32° C. and gravity-superfused with ACSF solution throughout experimentation and perfused at rate of 2 ml/min with oxygenated (O2/CO2 95/5%) ACSF.
Whole-cell currents were recorded from the dentate gyms granule cells (DGGCs) in 310-μm-thick coronal hippocampal slices. Patch pipettes (5-7MΩ) were pulled from borosilicate glass (World Precision Instruments) and filled with intracellular solution of the composition (in mM) as follows: 140 CsCl, 1 MgCl2, 0.1 EGTA, 10 HEPES, 2 Mg-ATP, 4 NaCl and 0.3 Na-GTP (pH=7.2 with CsOH). A 5 min period for stabilization after obtaining the whole-cell recording conformation (holding potential of −60 mV) was allowed before currents were recorded using an Axopatch 200B amplifier (Molecular Devices), low-pass filtered at 2 kHz, digitized at 20 kHz (Digidata 1440A; Molecular Devices), and stored for offline analysis.
(§1) For tonic current measurements, an all-points histogram was plotted for a 10 s period before and during 100 μM picrotoxin application, once the response reached a plateau level. Recordings with unstable baselines were discarded. Fitting the histogram with a Gaussian distribution gave the mean baseline current amplitude and the difference between the amplitudes before and during picrotoxin was considered to be the tonic current. The negative section of the all-points histogram which corresponds to the inward IPSCs was not fitted with a Gaussian distribution (Kretschmannova et al., 2013; Nusser and Mody, 2002). Series resistance and whole-cell capacitance were continually monitored and compensated throughout the course of the experiment. Recordings were eliminated from data analysis if series resistance increased by >20%. Spontaneous inhibitory post-synaptic currents (sIPSCs) were analyzed using the mini-analysis software (version 5.6.4; Synaptosoft, Decatur, Ga.). Minimum threshold detection was set to 3 times the value of baseline noise signal. To assess sIPSC kinetics, the recording trace was visually inspected and only events with a stable baseline, sharp rising phase, and single peak were used to negate artifacts due to event summation. Only recordings with a minimum of 200 events fitting these criteria were analyzed. sIPSCs amplitude, and frequency from each experimental condition was pooled and expressed as mean±SEM. To measure sIPSC decay, 100 consecutive events were averaged and the decay was fitted to a double exponential and the weighted decay constant (tw) was determined. Statistical analysis was performed by using Student t-test (paired and unpaired where appropriate), where p<0.05 is considered significant.

For assay [2], the target named is T1, α4β3δ GABAA receptors (Homo sapiens, UniProt O14764+P28472+P48169).
T1 construct: expressed in transfected cells; host or cells: CHO cells (transient transfection, Lipofectamine)
In words: Whole-cell patch clamp, potentiation of GABA EC20 currents at recombinant extrasynaptic-type receptors (CHO cells). The assay is classed as cell-based. The method, then: Cellular electrophysiology was used to measure the pharmacological properties of ALLO, ganaxolone and SGE-516 in heterologous cell systems. Compounds were tested for their ability to affect GABA mediated currents at a submaximal agonist dose (GABA EC20=2 μM).
LTK cells were stably transfected with the α1β2γ2 subunits of the GABA receptor and CHO cells are transiently transfected with the α4β3γ subunits via the Lipofecatamine method. Cells were passaged at a confluence of about 50-80% and then seeded onto 35 mm sterile culture dishes containing 2 ml culture complete medium without antibiotics or antimycotics. Cells were cultivated at a density that enabled the recording of single cells without visible connections to other cells.
Whole-cell currents were measured with HEKA EPC-10 amplifiers using PatchMaster software. Bath solution for all experiments contained (in mM): NaCl 137, KCl 4, CaCl2 1.8, MgCl2 1, HEPES 10, D-Glucose 10, pH 7.4 with NaOH. Intracellular (pipette) solution contained (in mM): KCl 130, MgCl2 1, Mg-ATP 5, HEPES 10, EGTA 5, pH 7.2 with KOH. During experiments, cells and solutions were maintained at room temperature (19° C.-30° C.). For manual patchclamp recordings, cell culture dishes were placed on the dish holder of the microscope and continuously perfused (1 ml/min) with bath solution. After formation of a Gigaohm seal between the patch electrode and the cell (pipette resistance range: 2.5 MΩ-6.0MΩ; seal resistance range: >1 GΩ) the cell membrane across the pipette tip was ruptured to assure electrical access to the cell interior (whole-cell patch configuration).
Cells were voltage-clamped at a holding potential of −80 mV. GABAA receptors were activated by 2 μM GABA and compounds were sequentially applied at increasing concentrations for 30 s prior to a 2 s application of GABA. GABA and compounds were applied to cells via the Dynaflow perfusion system (Cellectricon, Sweden). Test compounds were dissolved in DMSO to form 10 mM stock solution and serially diluted to 0.01, 0.1, 1, and 10 μM in bath solution. […] All concentrations of test compound were tested on each cell. The relative percentage potentiation was defined as the peak amplitude in response to GABA EC20 in the presence of test compound divided by the peak amplitude in response to GABA EC20 alone, multiplied by 100.
ALLO and ganaxolone are known PAMs of both synaptic and extrasynaptic GABAAR-mediated currents. […] The α1β2γ2 or α4β3δ subunit combinations were chosen as representatives of typical synaptic and extrasynaptic GABAA receptors respectively.

The subject of assay [3] is sIPSCs in dentate gyms granule cells (DGGCs). Briefly: sIPSCs in DGGCs after 15 min exposure and >30 min wash. The assay is classed as cell-based, mice. The method, then:
as §1, with “To assess sIPSC kinetics, the recording trace was visually inspected and only events with a stable baseline, sharp rising phase, and single peak were used to negate artifacts due to event summation.” left out, “Statistical analysis was performed by using Student t-test (paired and unpaired where appropriate), where p<0.05 is considered significant.” left out

Assay [4] relates to tonic current in DGGCs (β3 S408/9A mutant). Briefly: Sustained effect on tonic current in DGGCs from S408/9A mice. The format is cell-based. Conditions: 100 nM, slices from S408/9A mice.
Where [5] appears, read: 15 min incubation, 30-60 min wash.
[6] abbreviates: relative percentage potentiation of GABA EC20 peak current, n = 3.

T1 sequence (P48169 36-554): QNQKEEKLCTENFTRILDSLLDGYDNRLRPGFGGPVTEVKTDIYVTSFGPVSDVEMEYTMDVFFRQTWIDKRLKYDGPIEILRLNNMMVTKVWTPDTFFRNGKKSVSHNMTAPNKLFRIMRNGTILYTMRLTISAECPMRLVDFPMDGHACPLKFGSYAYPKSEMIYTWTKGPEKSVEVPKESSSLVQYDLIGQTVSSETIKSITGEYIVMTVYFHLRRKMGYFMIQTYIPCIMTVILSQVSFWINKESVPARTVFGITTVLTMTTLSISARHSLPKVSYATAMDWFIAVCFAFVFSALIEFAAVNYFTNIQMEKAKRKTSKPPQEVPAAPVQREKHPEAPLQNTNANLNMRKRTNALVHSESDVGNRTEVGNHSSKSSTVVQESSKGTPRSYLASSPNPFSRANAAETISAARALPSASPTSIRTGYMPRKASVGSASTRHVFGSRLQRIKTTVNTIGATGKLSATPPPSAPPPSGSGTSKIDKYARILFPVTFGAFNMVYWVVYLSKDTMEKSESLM
T1 sequence (P28472 26-473): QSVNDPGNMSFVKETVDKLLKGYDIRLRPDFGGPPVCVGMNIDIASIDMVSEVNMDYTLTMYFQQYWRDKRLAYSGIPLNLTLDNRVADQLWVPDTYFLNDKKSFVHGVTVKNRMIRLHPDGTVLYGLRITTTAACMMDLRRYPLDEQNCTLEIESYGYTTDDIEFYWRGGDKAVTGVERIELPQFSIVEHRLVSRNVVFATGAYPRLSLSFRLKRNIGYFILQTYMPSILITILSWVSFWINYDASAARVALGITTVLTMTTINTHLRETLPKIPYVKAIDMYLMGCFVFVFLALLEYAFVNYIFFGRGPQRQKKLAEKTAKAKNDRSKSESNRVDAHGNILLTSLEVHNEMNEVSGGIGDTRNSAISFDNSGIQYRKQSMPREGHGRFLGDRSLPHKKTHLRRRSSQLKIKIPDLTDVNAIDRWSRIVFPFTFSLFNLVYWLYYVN
T1 sequence (O14764 25-452): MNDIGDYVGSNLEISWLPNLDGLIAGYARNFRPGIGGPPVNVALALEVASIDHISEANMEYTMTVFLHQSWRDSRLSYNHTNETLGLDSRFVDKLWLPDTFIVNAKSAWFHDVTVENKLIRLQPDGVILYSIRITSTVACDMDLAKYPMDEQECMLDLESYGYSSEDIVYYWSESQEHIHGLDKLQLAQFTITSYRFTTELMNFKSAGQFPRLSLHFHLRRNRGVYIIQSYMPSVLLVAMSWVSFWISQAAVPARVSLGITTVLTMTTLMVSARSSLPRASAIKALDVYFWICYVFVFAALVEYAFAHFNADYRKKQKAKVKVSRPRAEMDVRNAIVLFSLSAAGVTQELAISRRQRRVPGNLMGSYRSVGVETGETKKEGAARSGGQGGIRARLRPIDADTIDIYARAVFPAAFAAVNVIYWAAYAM

The term EC50 denotes the concentration at which the effect is half-maximal. What is called Emax is the greatest response seen or fitted, relative to the assay's reference. In the case of `CC(=O)[C@H]1CC[C@H]2[C@@H]3CC[C@H]4C[C@H](O)CC[C@]4(C)[C@H]3CC[C@]12C` [ALLO, Allopregnanolone], in assay [1] (100 nM ALLO 15 min, strychnine 100 nM), the “increase in tonic current in the absence or presence of strychnine” value was “no difference”. Besides, the “change of tonic current versus vehicle” value in assay [1] (100 nM, 15 min incubation, 30-60 min wash) was “significant increase”. Also, in assay [1] (setting [5]), the “tonic current after exposure and washout” value is on record as 95.8±10.8 pA; the “change of tonic current after exposure to different concentrations” value is listed as “concentration-dependent increase; also recorded: significantly enhanced”. For the same compound, the “tonic current versus vehicle with PKC inhibitor GFX” value in assay [1] was “no significant difference; also recorded: No change”. Besides, the EC50 in assay [2] was determined as 0.057 µM. Further, the Emax in assay [2] (CHO, relative percentage potentiation of GABA EC20 peak current, n = 3, read-out: Emax ± S.E.M., α4β3δ) is 426%. Further, the “Emax ± S.E.M., α4β3δ” value in assay [2] (setting [6]) amounted to 426 ± 42%.
On to `C[C@@]1(O)CC[C@H]2[C@H](CC[C@@H]3[C@@H]2CC[C@]2(C)[C@@H](C(=O)Cn4nccn4)CC[C@@H]32)C1` [SGE-516], for which, in assay [1] (100 nM, WT slices), the “tonic current in DGGCs after incubation and extensive washout” value is “significant increased”. For the same compound, in assay [1] (setting [5]), the “tonic current after exposure and washout” value is 123.0±22.2 pA; the “change of tonic current after exposure to different concentrations” value is given as “concentration-dependent increase; also recorded: significantly enhanced”. For the same compound, the “tonic current versus vehicle with PKC inhibitor GFX” value in assay [1] is recorded as “no significant difference; also recorded: No change”. In addition, the “enhancement of sIPSC amplitude with GFX” value in assay [3] (100 nM SGE-516 plus GFX) is recorded as “significantly reduced”. Further, the “sIPSC amplitude after exposure and wash” value in assay [3] (100 nM, 15 min, washed >30 min) was “significantly enhanced”. For the same compound, in assay [4], the “tonic current in DGGCs after incubation and extensive washout” value is recorded as “did not modify”. Besides, the “pEC50 ± S.E.M., α4β3δ” value in assay [2] (GABA EC20 (2 μM), n = 3) came out at 6.7 ± 0.1. Moreover, the EC50 in assay [2] (GABA EC20 (2 μM), n = 3, read-out: EC50, potentiation of GABA current, α4β3δ) stood at 0.193 µM. Moreover, the “Emax ± S.E.M., α4β3δ” value in assay [2] (setting [6]) is listed as 505 ± 19%.
